In the assay the target is human LPA1 receptor (Homo sapiens (Human), UniProt Q92633). The assay can be described thus: Beta-arrestin recruitment assay to determine IC50 values for human LPAR1. Format: cell-based. The conditions noted are these: antagonist mode, Tango EDG2-bla U2OS cells, LPA 18:1 500 nM final. The method, boiled down:
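Tango EDG2-bla U2OS cells: LPA-driven beta-arrestin/TEV protease recruitment releases Gal4-VP16, inducing beta-lactamase reporter read with live-cell substrate. Cells seeded 20 h at 37 °C beforehand. IC50 is antagonist concentration inhibiting 50% of maximal response.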
In general terms: Activated receptors often draw arrestin, which recruitment assays turn into a signal.

Molecules are shown by their SMILES.

Chain of human LPA1 receptor (Q92633 whole entry, the tested form may be a part): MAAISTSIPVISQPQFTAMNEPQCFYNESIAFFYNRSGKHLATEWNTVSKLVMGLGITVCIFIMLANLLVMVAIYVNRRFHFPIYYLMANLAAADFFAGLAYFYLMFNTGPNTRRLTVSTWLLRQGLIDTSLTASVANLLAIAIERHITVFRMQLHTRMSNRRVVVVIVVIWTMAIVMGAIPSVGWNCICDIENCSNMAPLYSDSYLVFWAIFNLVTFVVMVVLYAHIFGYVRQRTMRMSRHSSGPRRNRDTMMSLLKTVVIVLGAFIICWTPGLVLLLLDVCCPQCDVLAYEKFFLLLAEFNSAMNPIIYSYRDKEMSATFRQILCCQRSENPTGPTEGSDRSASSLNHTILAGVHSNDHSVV

The term IC50 denotes the concentration that gives 50% inhibition. Low readings indicate inhibition by little substance, high ones a need for much substance. The molecule `Cc1ccc(NC(=O)C2(c3ccccc3C(C)C)CN(C[C@@H](O)CNC(=O)CO)C2)c(OC(F)F)n1` [Ex 11-86, (S)-N-(2-(difluoromethoxy)-6-methylpyridin-3-yl)-1-(2-hydroxy-3-(2-hydroxyacetamido)propyl)-3-(2-isopropylphenyl)azetidine-3-carboxamide] came in with a half-maximal inhibitory concentration (IC50) of 10 nM.

In the case of `Cc1ccc(NC(=O)C2(c3ccccc3C(C)C)CN(CCNC(=O)CO)C2)c(OC(F)F)n1` [Ex 11-87, N-(2-(difluoromethoxy)-6-methylpyridin-3-yl)-1-(2-(2-hydroxyacetamido)ethyl)-3-(2-isopropylphenyl)azetidine-3-carboxamide], the IC50 turned out to be 26 nM.

In turn, `Cc1ccc(NC(=O)C2(c3ccccc3C(C)C)CN(CC#N)C2)c(OC(F)F)n1` [Ex 11-88, 1-(cyanomethyl)-N-(2-(difluoromethoxy)-6-methylpyridin-3-yl)-3-(2-isopropylphenyl)azetidine-3-carboxamide] came in with an IC50 of 6 nM.

The molecule `Cc1ccc(NC(=O)C2(c3ccccc3C(C)C)CN(CC3(CO)COC3)C2)c(OC(F)F)n1` [Ex 11-89, N-(2-(difluoromethoxy)-6-methylpyridin-3-yl)-1-((3-(hydroxymethyl)oxetan-3-yl)methyl)-3-(2-isopropylphenyl)azetidine-3-carboxamide] registered an IC50 of 73 nM.

The molecule `COC(=O)C1(CN2CC(C(=O)Nc3ccc(C)nc3OC(F)F)(c3ccccc3C(C)C)C2)COC1` [Ex 11-90, methyl 3-((3-((2-(difluoromethoxy)-6-methylpyridin-3-yl)carbamoyl)-3-(2-isopropylphenyl)azetidin-1-yl)methyl)oxetane-3-carboxylate] displayed an IC50 of 45 nM.

`Cc1ccc(NC(=O)C2(c3ccccc3C(C)C)CN(CC3(C(=O)O)COC3)C2)c(OC(F)F)n1` [Ex 11-91, 3-((3-((2-(difluoromethoxy)-6-methylpyridin-3-yl)carbamoyl)-3-(2-isopropylphenyl)azetidin-1-yl)methyl)oxetane-3-carboxylic acid] showed a half-maximal inhibitory concentration (IC50) of 46 nM.

In turn, `CNC(=O)C(C)(C)CCN1CC(C(=O)Nc2ccc(C)nc2OC(F)F)(c2ccccc2C(C)C)C1` [Ex 11-92, N-(2-(difluoromethoxy)-6-methylpyridin-3-yl)-1-(3,3-dimethyl-4-(methylamino)-4-oxobutyl)-3-(2-isopropylphenyl)azetidine-3-carboxamide] came in with a concentration for half-maximal inhibition (IC50) of 44 nM.

On to `Cc1ccc(NC(=O)C2(c3ccccc3C(C)C)CN(CCC(C)(C)C(N)=O)C2)c(OC(F)F)n1` [Ex 11-93, 1-(4-amino-3,3-dimethyl-4-oxobutyl)-N-(2-(difluoromethoxy)-6-methylpyridin-3-yl)-3-(2-isopropylphenyl)azetidine-3-carboxamide], for which it took 65 nM to reach half-maximal inhibition (IC50).

`Cc1ccc(NC(=O)C2(c3ccccc3C(C)C)CN(CCCC(C)(C)N)C2)c(OC(F)F)n1` [Ex 11-94, 1-(4-amino-4-methylpentyl)-N-(2-(difluoromethoxy)-6-methylpyridin-3-yl)-3-(2-isopropylphenyl)azetidine-3-carboxamide] came in with an IC50 of 64 nM.

As to `Cc1ccc(NC(=O)C2(c3ccccc3C(C)C)CN(C(=O)CCCC#N)C2)c(OC(F)F)n1` [Ex 12-1, 1-(4-cyanobutanoyl)-N-(2-(difluoromethoxy)-6-methylpyridin-3-yl)-3-(2-isopropylphenyl)azetidine-3-carboxamide], the IC50 worked out at 15 nM.

Molecule `CC(=O)N1CC(C(=O)Nc2ccc(C)nc2OC(F)F)(c2ccccc2C(C)C)C1` [Ex 12-2, 1-acetyl-N-(2-(difluoromethoxy)-6-methylpyridin-3-yl)-3-(2-isopropylphenyl)azetidine-3-carboxamide] came in with an IC50 of 10 nM.

Molecule `Cc1ccc(NC(=O)C2(c3ccccc3C(C)C)CN(C(=O)CS(=O)(=O)O)C2)c(OC(F)F)n1` [Ex 12-3, 2-(3-((2-(difluoromethoxy)-6-methylpyridin-3-yl)carbamoyl)-3-(2-isopropylphenyl)azetidin-1-yl)-2-oxoethane-1-sulfonic acid] returned an IC50 of 16 nM.

`Cc1ccc(NC(=O)C2(c3ccccc3C(C)C)CN(C(=O)CS(N)(=O)=O)C2)c(OC(F)F)n1` [Ex 12-4, N-(2-(difluoromethoxy)-6-methylpyridin-3-yl)-3-(2-isopropylphenyl)-1-(2-sulfamoylacetyl)azetidine-3-carboxamide]: the IC50 was determined as 20 nM.

With `CNS(=O)(=O)CC(=O)N1CC(C(=O)Nc2ccc(C)nc2OC(F)F)(c2ccccc2C(C)C)C1` [Ex 12-6, N-(2-(difluoromethoxy)-6-methylpyridin-3-yl)-3-(2-isopropylphenyl)-1-(2-(N-methylsulfamoyl)acetyl)azetidine-3-carboxamide], 13 nM corresponded to half-maximal inhibition (IC50).

In the case of `Cc1ccc(NC(=O)C2(c3ccccc3C(C)C)CN(C(=O)CN(C)S(N)(=O)=O)C2)c(OC(F)F)n1` [Ex 12-8, N-(2-(difluoromethoxy)-6-methylpyridin-3-yl)-3-(2-isopropylphenyl)-1-(N-methyl-N-sulfamoylglycyl)azetidine-3-carboxamide], the IC50 stood at 10 nM.

`Cc1ccc(NC(=O)C2(c3ccccc3C(C)C)CN(C(=O)CNC(N)=O)C2)c(OC(F)F)n1` [Ex 12-10, 1-(carbamoylglycyl)-N-(2-(difluoromethoxy)-6-methylpyridin-3-yl)-3-(2-isopropylphenyl)azetidine-3-carboxamide] displayed a half-maximal inhibitory concentration (IC50) of 155 nM.

The molecule `Cc1ccc(NC(=O)C2(c3ccccc3C(C)C)CN(C(=O)CCC(=O)C(F)(F)F)C2)c(OC(F)F)n1` [Ex 12-11, N-(2-(difluoromethoxy)-6-methylpyridin-3-yl)-3-(2-isopropylphenyl)-1-(5,5,5-trifluoro-4-oxopentanoyl)azetidine-3-carboxamide] displayed an IC50 of 7 nM.

In turn, `Cc1ccc(NC(=O)C2(c3ccccc3C(C)C)CCN(C(=O)CCC(=O)C(F)(F)F)CC2)c(OC(F)F)n1` [Ex 12-12, N-(2-(difluoromethoxy)-6-methylpyridin-3-yl)-4-(2-isopropylphenyl)-1-(5,5,5-trifluoro-4-oxopentanoyl)piperidine-4-carboxamide] came in with an IC50 of 7 nM.

Take `Cc1ccc(NC(=O)C2(c3ccccc3C(C)C)CN(C(=O)CC3(O)COC3)C2)c(OC(F)F)n1` [Ex 12-13, N-(2-(difluoromethoxy)-6-methylpyridin-3-yl)-1-(2-(3-hydroxyoxetan-3-yl)acetyl)-3-(2-isopropylphenyl)azetidine-3-carboxamide]: inhibition was half-maximal at 17 nM (IC50).

Regarding `Cc1ccc(NC(=O)C2(c3ccccc3C(C)C)CCN(C(=O)CC3(O)COC3)CC2)c(OC(F)F)n1` [Ex 12-14, N-(2-(difluoromethoxy)-6-methylpyridin-3-yl)-1-(2-(3-hydroxyoxetan-3-yl)acetyl)-4-(2-isopropylphenyl)piperidine-4-carboxamide], the IC50 is 7 nM.

`Cc1ccc(NC(=O)C2(c3ccccc3C(C)C)CN(C(=O)c3cn[nH]c3)C2)c(OC(F)F)n1` [Ex 12-15, N-(2-(difluoromethoxy)-6-methylpyridin-3-yl)-3-(2-isopropylphenyl)-1-(1H-pyrazole-4-carbonyl)azetidine-3-carboxamide] had an IC50 of 36 nM.

For the molecule `Cc1ccc(NC(=O)C2(c3ccccc3C(C)C)CN(C(=O)c3cc(O)no3)C2)c(OC(F)F)n1` [Ex 12-16, N-(2-(difluoromethoxy)-6-methylpyridin-3-yl)-1-(3-hydroxyisoxazole-5-carbonyl)-3-(2-isopropylphenyl)azetidine-3-carboxamide], the concentration for half-maximal inhibition (IC50) amounted to 9 nM.
